# According to the kinase profiling compilation of Christmann-Franck et al. (2016):
# Experiments:
# Assay in all cases: KINOMEscan competition binding
# Conditions in all cases: compound 10.0 µM
# MAPK7 (human) = MAPK7 (human) (UniProt Q13164)
# NUAK1 (human) = NUAK1 (human) (UniProt O60285)
# EPHB4 (human) = EPHB4 (human) (UniProt P54760)
# PTK2 (human) = PTK2 (human) (UniProt Q05397)
# LIMK1 (human) = LIMK1 (human) (UniProt P53667)
# EPHA8 (human) = EPHA8 (human) (UniProt P29322)
# GSK3B (human) = GSK3B (human) (UniProt P49841)
# TAOK1 (human) = TAOK1 (human) (UniProt Q7L7X3)
# LTK (human) = LTK (human) (UniProt P29376)
# PAK7 (human) = PAK7 (human) (UniProt Q9P286)
# RPS6KA5 KD1 (human) = RPS6KA5 KD1 (human) (UniProt O75582)
# MAPK12 (human) = MAPK12 (human) (UniProt P53778)
# LYN (human) = LYN (human) (UniProt P07948)
# MKNK2 (human) = MKNK2 (human) (UniProt Q9HBH9)
# Chain of MKNK2 (human) (Q9HBH9 whole entry, looked up): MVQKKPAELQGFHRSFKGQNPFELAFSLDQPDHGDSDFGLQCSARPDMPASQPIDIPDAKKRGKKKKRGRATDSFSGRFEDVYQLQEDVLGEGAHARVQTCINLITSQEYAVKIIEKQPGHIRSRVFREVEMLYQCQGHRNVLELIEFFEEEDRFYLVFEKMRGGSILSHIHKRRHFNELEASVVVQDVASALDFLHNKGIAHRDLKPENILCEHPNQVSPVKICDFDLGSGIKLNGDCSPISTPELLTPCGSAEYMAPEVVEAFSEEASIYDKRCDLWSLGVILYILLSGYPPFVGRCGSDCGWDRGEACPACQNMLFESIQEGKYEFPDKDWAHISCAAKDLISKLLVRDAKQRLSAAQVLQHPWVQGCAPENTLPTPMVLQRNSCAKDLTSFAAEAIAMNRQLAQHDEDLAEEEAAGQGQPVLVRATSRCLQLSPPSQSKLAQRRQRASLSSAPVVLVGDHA
# PRKG2 (human) = PRKG2 (human) (UniProt Q13237)
# TEK (human) = TEK (human) (UniProt Q02763)
# PAK3 (human) = PAK3 (human) (UniProt O75914)
# MAP3K7 (human) = MAP3K7 (human) (UniProt O43318)
# FES (human) = FES (human) (UniProt P07332)
# Chain of FES (human) (P07332 whole entry, looked up): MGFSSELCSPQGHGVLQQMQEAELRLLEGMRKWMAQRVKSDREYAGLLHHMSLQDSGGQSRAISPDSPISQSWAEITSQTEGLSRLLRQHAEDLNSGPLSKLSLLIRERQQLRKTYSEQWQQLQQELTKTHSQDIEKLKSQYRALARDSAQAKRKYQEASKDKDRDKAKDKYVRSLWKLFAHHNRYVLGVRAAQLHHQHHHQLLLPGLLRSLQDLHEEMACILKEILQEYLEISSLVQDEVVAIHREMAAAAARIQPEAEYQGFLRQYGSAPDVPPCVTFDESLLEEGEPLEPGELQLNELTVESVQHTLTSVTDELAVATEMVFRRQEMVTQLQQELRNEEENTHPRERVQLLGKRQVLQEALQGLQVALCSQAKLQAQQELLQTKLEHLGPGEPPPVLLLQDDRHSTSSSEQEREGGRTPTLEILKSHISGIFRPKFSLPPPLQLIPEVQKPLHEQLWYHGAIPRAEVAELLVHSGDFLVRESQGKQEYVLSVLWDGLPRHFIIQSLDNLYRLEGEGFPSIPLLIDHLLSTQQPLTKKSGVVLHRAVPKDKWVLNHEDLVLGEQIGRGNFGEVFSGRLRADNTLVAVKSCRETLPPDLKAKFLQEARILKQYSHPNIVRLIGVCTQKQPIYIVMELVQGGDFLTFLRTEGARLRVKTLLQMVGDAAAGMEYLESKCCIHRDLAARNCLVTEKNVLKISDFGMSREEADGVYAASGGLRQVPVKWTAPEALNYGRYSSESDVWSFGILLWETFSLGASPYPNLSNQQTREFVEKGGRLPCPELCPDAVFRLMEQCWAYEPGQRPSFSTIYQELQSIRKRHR
# STK36 (human) = STK36 (human) (UniProt Q9NRP7)
# CSNK2A1 (human) = CSNK2A1 (human) (UniProt P68400)
# ULK1 (human) = ULK1 (human) (UniProt O75385)
# MAPK8 (human) = MAPK8 (human) (UniProt P45983)
# PIM3 (human) = PIM3 (human) (UniProt Q86V86)
# CAMK1D (human) = CAMK1D (human) (UniProt Q8IU85)
# Chain of CAMK1D (human) (Q8IU85 whole entry, looked up): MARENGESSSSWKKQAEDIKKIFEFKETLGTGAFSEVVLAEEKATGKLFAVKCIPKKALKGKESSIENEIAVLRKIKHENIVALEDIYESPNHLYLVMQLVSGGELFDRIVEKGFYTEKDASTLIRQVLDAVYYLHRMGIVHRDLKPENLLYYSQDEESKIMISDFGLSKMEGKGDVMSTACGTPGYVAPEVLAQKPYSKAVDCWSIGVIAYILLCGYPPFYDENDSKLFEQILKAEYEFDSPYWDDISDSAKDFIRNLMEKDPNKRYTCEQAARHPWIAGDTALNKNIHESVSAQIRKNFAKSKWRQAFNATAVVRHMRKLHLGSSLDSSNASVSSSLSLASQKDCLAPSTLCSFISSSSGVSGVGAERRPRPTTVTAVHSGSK
# CSNK2A2 (human) = CSNK2A2 (human) (UniProt P19784)
# EPHB1 (human) = EPHB1 (human) (UniProt P54762)
# NLK (human) = NLK (human) (UniProt Q9UBE8)
# GAK (human) = GAK (human) (UniProt O14976)
# CSF1R (human) = CSF1R (human) (UniProt P07333)
# PRKCH (human) = PRKCH (human) (UniProt P24723)
# PIM1 (human) = PIM1 (human) (UniProt P11309)
# Chain of PIM1 (human) (P11309 whole entry, looked up): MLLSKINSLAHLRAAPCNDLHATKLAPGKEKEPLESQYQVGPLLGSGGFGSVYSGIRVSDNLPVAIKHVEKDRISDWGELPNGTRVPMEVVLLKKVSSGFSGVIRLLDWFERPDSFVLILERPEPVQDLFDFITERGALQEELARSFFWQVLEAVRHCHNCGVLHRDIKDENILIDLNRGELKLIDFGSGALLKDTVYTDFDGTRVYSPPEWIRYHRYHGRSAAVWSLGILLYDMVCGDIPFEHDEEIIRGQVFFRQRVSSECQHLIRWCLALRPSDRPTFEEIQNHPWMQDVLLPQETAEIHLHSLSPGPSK
# FLT1 (human) = FLT1 (human) (UniProt P17948)
# PIM2 (human) = PIM2 (human) (UniProt Q9P1W9)
# [1] = test system: FLT3 (human), P36888 [ITD]
# Chain of FLT3 (human), P36888 [ITD] (P36888 whole entry, looked up, change not shown): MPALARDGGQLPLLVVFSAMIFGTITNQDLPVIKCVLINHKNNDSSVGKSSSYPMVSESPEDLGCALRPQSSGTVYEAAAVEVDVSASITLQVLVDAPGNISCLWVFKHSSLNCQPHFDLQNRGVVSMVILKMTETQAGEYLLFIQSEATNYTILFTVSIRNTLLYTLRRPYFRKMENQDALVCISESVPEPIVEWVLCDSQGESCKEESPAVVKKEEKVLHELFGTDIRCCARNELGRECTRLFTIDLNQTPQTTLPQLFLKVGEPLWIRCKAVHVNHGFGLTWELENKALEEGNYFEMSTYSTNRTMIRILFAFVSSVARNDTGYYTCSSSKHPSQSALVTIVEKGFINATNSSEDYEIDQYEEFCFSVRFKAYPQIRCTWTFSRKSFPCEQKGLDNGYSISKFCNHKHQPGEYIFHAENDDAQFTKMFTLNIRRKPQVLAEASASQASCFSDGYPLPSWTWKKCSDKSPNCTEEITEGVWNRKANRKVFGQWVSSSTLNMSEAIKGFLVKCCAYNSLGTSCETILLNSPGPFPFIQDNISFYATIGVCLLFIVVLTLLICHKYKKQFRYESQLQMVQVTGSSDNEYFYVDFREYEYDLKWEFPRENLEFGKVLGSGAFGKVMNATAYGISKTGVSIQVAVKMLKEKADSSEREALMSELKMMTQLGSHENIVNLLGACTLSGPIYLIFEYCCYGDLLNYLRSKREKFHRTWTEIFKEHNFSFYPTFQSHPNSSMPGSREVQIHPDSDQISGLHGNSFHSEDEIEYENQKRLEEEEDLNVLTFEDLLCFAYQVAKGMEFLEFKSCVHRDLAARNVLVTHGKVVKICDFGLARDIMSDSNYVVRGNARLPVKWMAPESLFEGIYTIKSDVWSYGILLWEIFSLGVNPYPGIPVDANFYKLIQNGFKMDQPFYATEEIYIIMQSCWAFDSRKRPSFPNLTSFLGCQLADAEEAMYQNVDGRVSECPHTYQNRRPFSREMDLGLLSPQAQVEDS
# AKT1 (human) = AKT1 (human) (UniProt P31749)
# Chain of AKT1 (human) (P31749 whole entry, looked up): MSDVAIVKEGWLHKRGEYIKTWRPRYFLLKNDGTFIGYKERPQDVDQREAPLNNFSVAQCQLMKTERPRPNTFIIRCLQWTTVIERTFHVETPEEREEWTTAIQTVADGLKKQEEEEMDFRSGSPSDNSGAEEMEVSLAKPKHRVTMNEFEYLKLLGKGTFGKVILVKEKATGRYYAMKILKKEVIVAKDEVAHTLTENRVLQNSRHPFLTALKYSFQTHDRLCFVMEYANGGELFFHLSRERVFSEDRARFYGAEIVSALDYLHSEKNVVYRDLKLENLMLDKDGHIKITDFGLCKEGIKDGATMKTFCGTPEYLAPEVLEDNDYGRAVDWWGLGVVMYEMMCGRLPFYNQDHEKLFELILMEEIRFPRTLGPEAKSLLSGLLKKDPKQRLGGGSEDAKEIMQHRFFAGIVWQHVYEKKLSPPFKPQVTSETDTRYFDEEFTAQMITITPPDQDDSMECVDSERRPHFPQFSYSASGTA
# NEK2 (human) = NEK2 (human) (UniProt P51955)
# PRKCE (human) = PRKCE (human) (UniProt Q02156)
# LCK (human) = LCK (human) (UniProt P06239)
# Chain of LCK (human) (P06239 whole entry, looked up): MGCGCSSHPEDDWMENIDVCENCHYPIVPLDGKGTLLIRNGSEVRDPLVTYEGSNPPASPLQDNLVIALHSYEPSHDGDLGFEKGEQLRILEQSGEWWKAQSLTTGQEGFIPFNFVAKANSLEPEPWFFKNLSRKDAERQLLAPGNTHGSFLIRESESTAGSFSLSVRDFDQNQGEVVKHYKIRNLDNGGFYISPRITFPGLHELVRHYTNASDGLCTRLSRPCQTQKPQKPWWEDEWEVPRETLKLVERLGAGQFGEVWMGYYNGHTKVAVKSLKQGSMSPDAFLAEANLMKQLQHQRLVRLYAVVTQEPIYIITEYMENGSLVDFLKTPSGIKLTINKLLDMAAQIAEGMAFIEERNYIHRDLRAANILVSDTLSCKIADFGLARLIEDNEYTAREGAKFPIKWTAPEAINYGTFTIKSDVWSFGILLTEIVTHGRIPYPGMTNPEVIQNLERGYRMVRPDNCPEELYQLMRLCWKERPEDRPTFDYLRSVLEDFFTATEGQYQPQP
# CDK17 (human) = CDK17 (human) (UniProt Q00537)
# PKMYT1 (human) = PKMYT1 (human) (UniProt Q99640)
# Chain of PTK2 (human) (Q05397 whole entry, looked up): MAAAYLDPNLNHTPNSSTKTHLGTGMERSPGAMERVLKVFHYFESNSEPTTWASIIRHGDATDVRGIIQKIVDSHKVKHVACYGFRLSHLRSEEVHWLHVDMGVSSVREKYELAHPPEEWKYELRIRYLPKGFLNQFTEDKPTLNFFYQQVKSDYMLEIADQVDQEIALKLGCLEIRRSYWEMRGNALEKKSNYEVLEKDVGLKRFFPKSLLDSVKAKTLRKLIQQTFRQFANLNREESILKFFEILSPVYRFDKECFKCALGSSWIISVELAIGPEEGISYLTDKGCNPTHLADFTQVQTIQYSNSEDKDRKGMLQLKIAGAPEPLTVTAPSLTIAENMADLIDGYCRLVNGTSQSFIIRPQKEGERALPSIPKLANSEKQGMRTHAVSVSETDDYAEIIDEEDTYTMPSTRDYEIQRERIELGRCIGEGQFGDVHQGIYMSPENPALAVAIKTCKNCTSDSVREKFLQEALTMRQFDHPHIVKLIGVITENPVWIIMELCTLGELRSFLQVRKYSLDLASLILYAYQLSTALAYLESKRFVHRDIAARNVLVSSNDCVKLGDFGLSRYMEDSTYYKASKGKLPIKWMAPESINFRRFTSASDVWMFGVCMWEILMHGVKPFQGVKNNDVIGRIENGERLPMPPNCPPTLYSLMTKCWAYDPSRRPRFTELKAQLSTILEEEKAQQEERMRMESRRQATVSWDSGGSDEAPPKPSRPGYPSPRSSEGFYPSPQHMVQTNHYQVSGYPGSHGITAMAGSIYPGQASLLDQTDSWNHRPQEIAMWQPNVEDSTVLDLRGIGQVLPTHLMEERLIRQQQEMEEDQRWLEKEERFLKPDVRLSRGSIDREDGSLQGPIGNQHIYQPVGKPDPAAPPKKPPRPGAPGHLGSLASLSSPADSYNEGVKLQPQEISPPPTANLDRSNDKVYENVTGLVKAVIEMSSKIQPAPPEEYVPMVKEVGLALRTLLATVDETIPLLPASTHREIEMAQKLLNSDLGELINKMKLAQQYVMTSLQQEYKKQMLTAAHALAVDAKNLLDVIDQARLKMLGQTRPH
compound,measurement,setting,value
O=C1Nc2ccc(I)cc2/C1=C/c1cc(Br)c(O)c(Br)c1,"kinase still bound, per cent of control",MAPK7 (human),5%
same,"kinase still bound, per cent of control",NUAK1 (human),100%
same,"kinase still bound, per cent of control",EPHB4 (human),100%
same,"kinase still bound, per cent of control",PTK2 (human),98%
same,"kinase still bound, per cent of control",LIMK1 (human),100%
same,"kinase still bound, per cent of control",EPHA8 (human),100%
same,"kinase still bound, per cent of control",GSK3B (human),91%
same,"kinase still bound, per cent of control",TAOK1 (human),54%
same,"kinase still bound, per cent of control",LTK (human),47%
same,"kinase still bound, per cent of control",PAK7 (human),87%
same,"kinase still bound, per cent of control",RPS6KA5 KD1 (human),96%
same,"kinase still bound, per cent of control",MAPK12 (human),74%
same,"kinase still bound, per cent of control",LYN (human),86%
same,"kinase still bound, per cent of control",MKNK2 (human),89%
same,"kinase still bound, per cent of control",PRKG2 (human),83%
same,"kinase still bound, per cent of control",TEK (human),100%
same,"kinase still bound, per cent of control",PAK3 (human),100%
same,"kinase still bound, per cent of control",MAP3K7 (human),67%
same,"kinase still bound, per cent of control",FES (human),95%
same,"kinase still bound, per cent of control",STK36 (human),14%
same,"kinase still bound, per cent of control",CSNK2A1 (human),4.2%
same,"kinase still bound, per cent of control",ULK1 (human),100%
same,"kinase still bound, per cent of control",MAPK8 (human),86%
same,"kinase still bound, per cent of control",PIM3 (human),2%
same,"kinase still bound, per cent of control",CAMK1D (human),76%
same,"kinase still bound, per cent of control",CSNK2A2 (human),3.2%
same,"kinase still bound, per cent of control",EPHB1 (human),100%
same,"kinase still bound, per cent of control",NLK (human),56%
same,"kinase still bound, per cent of control",GAK (human),1.6%
same,"kinase still bound, per cent of control",CSF1R (human),71%
same,"kinase still bound, per cent of control",PRKCH (human),100%
same,"kinase still bound, per cent of control",PIM1 (human),2.8%
same,"kinase still bound, per cent of control",FLT1 (human),100%
same,"kinase still bound, per cent of control",PIM2 (human),2.1%
same,"kinase still bound, per cent of control",[1],33%
same,"kinase still bound, per cent of control",AKT1 (human),100%
same,"kinase still bound, per cent of control",NEK2 (human),100%
same,"kinase still bound, per cent of control",PRKCE (human),100%
same,"kinase still bound, per cent of control",LCK (human),38%
same,"kinase still bound, per cent of control",CDK17 (human),87%
same,"kinase still bound, per cent of control",PKMYT1 (human),79%
CCC(=O)N1CCN(c2ccc(-n3c(=O)ccc4cnc5ccc(-c6cnc7ccccc7c6)cc5c43)cc2C(F)(F)F)CC1,"kinase still bound, per cent of control",MAPK7 (human),100%
same,"kinase still bound, per cent of control",NUAK1 (human),100%
same,"kinase still bound, per cent of control",EPHB4 (human),85%
same,"kinase still bound, per cent of control",PTK2 (human),14%
same,"kinase still bound, per cent of control",LIMK1 (human),15%
same,"kinase still bound, per cent of control",EPHA8 (human),71%
same,"kinase still bound, per cent of control",GSK3B (human),100%
same,"kinase still bound, per cent of control",TAOK1 (human),58%
same,"kinase still bound, per cent of control",LTK (human),77%
same,"kinase still bound, per cent of control",PAK7 (human),87%
same,"kinase still bound, per cent of control",RPS6KA5 KD1 (human),100%
same,"kinase still bound, per cent of control",MAPK12 (human),71%
same,"kinase still bound, per cent of control",LYN (human),79%
same,"kinase still bound, per cent of control",MKNK2 (human),54%
same,"kinase still bound, per cent of control",PRKG2 (human),78%
same,"kinase still bound, per cent of control",TEK (human),19%
same,"kinase still bound, per cent of control",PAK3 (human),100%
same,"kinase still bound, per cent of control",MAP3K7 (human),47%
same,"kinase still bound, per cent of control",FES (human),41%
same,"kinase still bound, per cent of control",STK36 (human),17%
same,"kinase still bound, per cent of control",CSNK2A1 (human),94%
same,"kinase still bound, per cent of control",ULK1 (human),100%
same,"kinase still bound, per cent of control",MAPK8 (human),22%
same,"kinase still bound, per cent of control",PIM3 (human),96%
same,"kinase still bound, per cent of control",CAMK1D (human),88%
same,"kinase still bound, per cent of control",CSNK2A2 (human),11%
same,"kinase still bound, per cent of control",EPHB1 (human),100%
same,"kinase still bound, per cent of control",NLK (human),25%
same,"kinase still bound, per cent of control",GAK (human),57%
same,"kinase still bound, per cent of control",CSF1R (human),24%
same,"kinase still bound, per cent of control",PRKCH (human),92%
same,"kinase still bound, per cent of control",PIM1 (human),80%
same,"kinase still bound, per cent of control",FLT1 (human),79%
same,"kinase still bound, per cent of control",PIM2 (human),62%
same,"kinase still bound, per cent of control",[1],29%
same,"kinase still bound, per cent of control",AKT1 (human),91%
same,"kinase still bound, per cent of control",NEK2 (human),90%
same,"kinase still bound, per cent of control",PRKCE (human),86%
same,"kinase still bound, per cent of control",LCK (human),77%
same,"kinase still bound, per cent of control",CDK17 (human),97%
same,"kinase still bound, per cent of control",PKMYT1 (human),52%
